Consider one molecule from PMC12418948, “Intranasal Administration of KCNN2 Blocking Peptide Improves Deficits in Cognitive Flexibility in Mouse Model of Fetal Alcohol Spectrum Disorders” (International Journal of Neuropsychopharmacology, 2025).

Molecules are shown by their SMILES. “Also recorded” adds a separate entry of the source. Positions of bridges follow the written chain, without caps; N, C: chain ends. Non-standard residues stand in square brackets, D forms with d. Residues, ends and D or L forms follow the SMILES beside them. Dab = NCC[C@H](N)C(=O)O

The subject of series [1] is Jurkat (clone E6-1) cells. As to the kind of experiment: ATP cell viability (cytotoxicity) assay, CellTiter-Glo 2.0. The series is classed as cell-based, human. As for the experimental part: Potential cytotoxicity of Lei-Dab7 was assessed by an ATP detection assay. Jurkat (clone E6-1) cells were used as they express KCNN2 channels constitutively and have been used to assess the cytotoxicity of compounds that block KCNN2.[37]^,[38] After recovery from cryopreservation, cells were plated into V-bottom, 96-well plates (2 × 10^4 cells per well), and the compound (Lei-Dab7) or control (negative control: media alone or 10% PBS in media; positive control: approximately 1% sodium dodecyl sulfate in media) was added into the culture media. After incubation for 24 hours, cells were assessed for viability using a CellTiter-Glo 2.0 kit (Promega, WI). Briefly, CellTiter-Glo 2.0 reagent was thawed and warmed to approximately 22°C, then mixed by gentle inversion. Once thoroughly mixed, 100 μL of reagent was distributed into each well, and the plates were gently mixed for approximately 2 minutes on an orbital shaker for cell lysis. The plates were then incubated for approximately10 minutes at room temperature to stabilize the luminescent signal. The amount of light produced from each well was quantified using a Cytation 5 plate reader (BioTek, VT). Cell viability was calculated as a percentage of the mean of the negative control […] for each well. […]

Another series deals with KCNN2. As to the kind of experiment: Intranasal delivery to PFC, immunohistochemistry for biotin and KCNN2. The series is classed as in vivo, mouse (CD-1). The following applies: PFC in addition to motor cortex. Here is the method:
Mice were deeply anesthetized with isoflurane (Henry Schein, OH) and perfused through the ascending aorta with ice cold 4% paraformaldehyde (PFA) following a standard laboratory protocol. Brains were collected and post-fixed in 4% PFA at 4°C overnight, followed by incubation in 10% and 30% sucrose in PBS at 4°C for 24 hours. Coronal sections at 60 μm thickness were made using a cryostat (CM3050S; Leica, Germany). Free floating sections were incubated with hydrogen peroxide in methanol (1:4) solution at −20°C for 20 minutes to inactivate endogenous peroxidase activity. […]
Lei-Dab7 or biotinylated Lei-Dab7 (Smartox Biotechnology, France) was dissolved in PBS and administered to mice intranasally at 3.0 μg/kg/day. […] Physiological monitoring was recorded at 30 minutes and 24 hours post administration by using PhysioSuite (Kent Scientific, CT).
KCNN2, NeuN, GFAP, IBA1, and biotin-positive cells were quantified. […] Allen Brain Atlas was used to define different brain regions visualized by DAPI staining, and single-plane images from defined regions were used for the quantification. The researcher conducting the quantification was blinded to treatment groups throughout the analysis to minimize bias. The size of the region of interest was determined for each analysis to include a sufficient number of labeled cells with clear and detailed staining. […]

A further series concerns rat. Further details: method as in 2 sources, one per row (each row's own in cited_ref): ref 82 = [82]; PMID 15985330; doi:10.1016/j.neulet.2005.05.050; 82. Deschaux O , Bizot JC . Apamin produces selective improvements of learning in rats . Neurosci Lett. 2005; 386 : 5 – 8 . 10.1016/j.neulet.2005.05.050 15985330 ||| ref 26, 82, 83 = [26]; PMID 18561910; doi:10.1016/j.ejphar.2008.05.019; 26. Mpari B , Sreng L , Regaya I , Mourre C . Small-conductance Ca(2+)-activated K(+) channels: heterogeneous affinity in rat brain structures and cognitive modulation by specific blockers . Eur J Pha || [82]; PMID 15985330; doi:10.1016/j.neulet.2005.05.050; 82. Deschaux O , Bizot JC . Apamin produces selective improvements of learning in rats . Neurosci Lett. 2005; 386 : 5 – 8 . 10.1016/j.neulet.2005.05.050 15985330 || [83]; PMID 9148239; doi:10.1016/s0304-3940(97)13367-5; 83. Deschaux O , Bizot JC , Goyffon M . Apamin improves learning in an object recognition task in rats . Neurosci Lett. 1997; 222 : 159 – 162 . 10.1016/s0304-3940(97)13367-5 9148239. As to conditions: cited from earlier work.

On to `CC[C@H](C)[C@@H]1NC(=O)[C@@H]2CSSC[C@H](NC(=O)[C@H](Cc3ccccc3)NC(=O)[C@H](C)N)C(=O)N[C@@H](CC(N)=O)C(=O)N[C@@H](CC(C)C)C(=O)N[C@@H](CCCNC(=N)N)C(=O)N[C@@H](CCN)C(=O)N[C@H]3CSSC[C@H](NC(=O)[C@H](CCCCN)NC(=O)[C@H](CC(=O)O)NC(=O)CNC1=O)C(=O)N[C@@H](CCC(=O)O)C(=O)N[C@H](C(=O)N[C@H](C(=O)N[C@@H](CCCCN)C(=O)N[C@@H](Cc1c[nH]cn1)C(N)=O)C(C)C)CSSC[C@H](NC(=O)[C@H](CO)NC(=O)[C@H](CC(C)C)NC(=O)[C@H](CCC(N)=O)NC3=O)C(=O)N[C@@H](CCCNC(=N)N)C(=O)N[C@@H](CO)C(=O)N[C@@H](CC(C)C)C(=O)NCC(=O)N[C@@H](CC(C)C)C(=O)N[C@@H](CC(C)C)C(=O)NCC(=O)N[C@@H](CCCCN)C(=O)N2` [Lei-Dab7, Leiurotoxin-1 Dab7] (H-AFCNLR[Dab]CQLSCRSLGLLGKCIGDKCECVKH-NH2; disulfide 3-21, 8-26, 12-28), for which the cytotoxicity entry in series [1] (24-hour culture, ATP cell viability assay, even as high as at 100 μM) is on record as “did not show any cytotoxicity”. Besides, the “cytotoxicity (summary wording)” value in series [1] (in vitro, abstract/introduction wording) is given as “negligible cytotoxicity; also recorded: no detectable cytotoxicity”. Also, in the series with KCNN2, the “delivery to target brain regions” value is on record as “efficiently reaches the target in the brain; also recorded: effectively reaches its target regions, including the PFC (Figs. 3, 4) in addition to the motor cortex”. In addition, the “negative effects on learning in rats” value in the series on rat was “no negative effects”.
